Like-named read-outs stand apart in the source and are kept apart here.
How the values were obtained:
[1] = test system: EBOV (mucin-deleted glycoprotein, VSV pseudotype); experiment: microbe, parasite or virus in culture; type: cell-based, Zaire ebolavirus; conditions: read-out: EC50 Pseudotype Assays EBOV
[2] = test system: EBOV_FL: full-length Ebola Zaire GP (VSV pseudotype); experiment: microbe, parasite or virus in culture; type: cell-based, Zaire ebolavirus; conditions: Zaire ebolavirus, Vero, 24 h, read-out: EC50 Pseudotype Assays EBOV_FL
[3] = test system: BDBV (mucin-deleted glycoprotein, VSV pseudotype); experiment: microbe, parasite or virus in culture; type: cell-based, Bundibugyo ebolavirus; conditions: Vesicular stomatitis virus, Vero, 24 h, read-out: EC50 Pseudotype Assays BDBV
[4] = test system: SUDV (glycoprotein, VSV pseudotype); experiment: microbe, parasite or virus in culture; type: cell-based, Sudan ebolavirus; conditions: Vesicular stomatitis virus, Vero, 24 h, read-out: EC50 Pseudotype Assays SUDV
[5] = test system: MARV (full-length glycoprotein, VSV pseudotype); experiment: microbe, parasite or virus in culture; type: cell-based, Marburg marburgvirus; conditions: for EC50: Vesicular stomatitis virus, Vero, 24 h, read-out: EC50 Pseudotype Assays MARV
[6] = test system: VSV (native full-length glycoprotein); experiment: microbe, parasite or virus in culture; type: cell-based; conditions: Vesicular stomatitis virus, Vero, read-out: EC50 Pseudotype Assays VSV
in vitro = conditions: African green monkey, Cytotox CC50
[7] = microsomes, 1 h
[8] = microsomes, 1 h; remark: listed apart in the source
[9] = microsomes, 1 h; remark: listed apart in the source
[10] = microsomes, 1 h; remark: listed apart in the source

| Compound | EC50 ([1]; Zaire ebolavirus, Vero, 24 h) [nM] | EC50 [2] [nM] | EC50 [3] [nM] | EC50 [4] [nM] | EC50 [5] [nM] | EC50 [6] [nM] | CC50 (in vitro) [nM] | EC50 [1] [nM] | Liver Microsome Stability % Remaining after 60 Minutes, Human [7] [%] | Liver Microsome Stability % Remaining after 60 Minutes, Mouse [8] [%] | Liver Microsome Stability % Remaining after 60 Minutes, Monkey [9] [%] | Liver Microsome Stability % Remaining after 60 Minutes, Guinea Pig [10] [%] | fold more potent against Marburgvirus infection compared to the opposite enantiomer [5] [fold] |
| --- | --- | --- | --- | --- | --- | --- | --- | --- | --- | --- | --- | --- | --- |
| CC12CC3CC(C(=O)NC4CCNCC4)(C1)CC(c1ccccc1)(C3)C2 (racemic) [Example A1] | 42 | 40 | 160 | 380 | 2800 | > 10000 | 16100 |  |  |  |  |  |  |
| CC12CC3CC(C(=O)N[C@H]4CC[C@H](CN)CC4)(C1)CC(c1ccccc1)(C3)C2 (mixture of isomers) [Example A3] | 26 | 40 | 95 | 30 | 7000 | > 10000 | 8000 |  |  |  |  |  |  |
| C[C@H]1C[C@@H](NC(=O)C23CC4CC(C)(C2)CC(c2ccccc2)(C4)C3)CCN1 (mixture of isomers) [Example A4] | 22 | 25 | 198 | 730 | 7100 | > 10000 | 11700 |  |  |  |  |  |  |
| CC12CC3CC(C(=O)N[C@@H]4CCNC[C@H]4F)(C1)CC(c1ccccc1)(C3)C2 (mixture of isomers) [Example A5] | 50 | 30 | 190 | 410 | 4880 | > 10000 | 11300 |  |  |  |  |  |  |
| CCC12CC3CC(C(=O)N[C@@H]4CCNC[C@H]4F)(C1)CC(c1ccccc1)(C3)C2 (mixture of isomers) [Example A17] |  | 25 | 125 | 255 | 5910 |  | 6000 | 39 |  |  |  |  |  |
| CCC12CC3CC(C(=O)N[C@H]4CCNC[C@@H]4F)(C1)CC(c1ccccc1)(C3)C2 (mixture of isomers) [Example A19] | 23 | 40 | 261 | 465 | 3440 |  | 7300 |  |  |  |  |  |  |
| CCC12CC3CC(C(=O)NC4CCNCC4(C)C)(C1)CC(c1ccccc1)(C3)C2 (racemic) [Example A20] | 42 | 30 | 135 | 330 | 1570 |  | 5700 |  |  |  |  |  |  |
| CCC12CC3CC(C(=O)N[C@H]4CCN[C@@H](C)C4)(C1)CC(c1ccccc1)(C3)C2 (mixture of isomers) [Example A21] | 22 | 20 | 208 | 415 | 6910 |  | 3900 |  |  |  |  |  |  |
| CCC12CC3CC(C(=O)N[C@H]4CC[C@H](CN)CC4)(C1)CC(c1ccccc1)(C3)C2 (mixture of isomers) [Example A22] | 19 | 10 | 185 | 416 | 2800 |  | 3700 |  |  |  |  |  |  |
| CCC12CC3CC(C(=O)N[C@@H]4CCNC[C@@H]4F)(C1)CC(c1ccccc1)(C3)C2 (mixture of isomers) [Example A23] | 41 | 20 | 306 | 500 | 3510 |  | 7800 |  |  |  |  |  |  |
| CCC12CC3CC(C(=O)N[C@@H]4CCNC[C@H]4O)(C1)CC(c1ccccc1)(C3)C2 (mixture of isomers) [Example A25] | 41 | 60 | 198 | 795 | 8460 |  | 11800 |  |  |  |  |  |  |
| CCC12CC3CC(C(=O)NC4(C)CCNCC4)(C1)CC(c1ccccc1)(C3)C2 (racemic) [Example A26] | 130 | 200 | 333 | 605 | 2570 |  | 6700 |  |  |  |  |  |  |
| N[C@H]1CC[C@@H](NC(=O)C23CC4CC(CF)(C2)CC(c2ccccc2)(C4)C3)CC1 (mixture of isomers) [Example A28] | 62 | 140 | 596 | 1540 | > 10000 |  | 32300 |  |  |  |  |  |  |
| CC12CC3CC(C(=O)N4CCC(N)CC4)(C1)CC(c1ccccc1)(C3)C2 (racemic) [Example A33] | 50 | 200 | 69 | 300 |  |  | 13600 |  |  |  |  |  |  |
| CC12CC3CC(C(=O)N4CCC5(CCCN5)CC4)(C1)CC(c1ccccc1)(C3)C2 (racemic) [Example A38] | 40 | 70 | 104 | 130 |  |  | 6910 |  |  |  |  |  |  |
| CC12CC3CC(C(=O)N4CCC5(CC4)CNC5)(C1)CC(c1ccccc1)(C3)C2 (racemic) [Example A48] | 14 | 140 | 35 | 35 |  |  | 13700 |  | 46 | 76 | 22 | 87 |  |
| CC12CC3CC(C(=O)N4CC5(CCNC5)C4)(C1)CC(c1ccccc1)(C3)C2 (racemic) [Example A49] | 23 | 190 | 109 | 200 |  |  | 21900 |  |  |  |  |  |  |

| Compound | EC50 ([1]; Zaire ebolavirus, Vero, 24 h) [nM] | EC50 [2] [nM] | EC50 [3] [nM] | EC50 [4] [nM] | EC50 [5] [nM] | EC50 [6] [nM] | CC50 (in vitro) [nM] | EC50 [1] [nM] | Liver Microsome Stability % Remaining after 60 Minutes, Human [7] [%] | Liver Microsome Stability % Remaining after 60 Minutes, Mouse [8] [%] | Liver Microsome Stability % Remaining after 60 Minutes, Monkey [9] [%] | Liver Microsome Stability % Remaining after 60 Minutes, Guinea Pig [10] [%] | fold more potent against Marburgvirus infection compared to the opposite enantiomer [5] [fold] |
| --- | --- | --- | --- | --- | --- | --- | --- | --- | --- | --- | --- | --- | --- |
| CC12CC3CC(C(=O)N[C@H]4CN5CCC4CC5)(C1)CC(c1ccccc1)(C3)C2 (mixture of isomers) [Example A58] | 74 | 70 | 198 | 383 | 282 | > 10000 | 7200 |  |  |  |  |  |  |
| NC1CCN(CC23CC4CC(C2)CC(c2ccccc2)(C4)C3)CC1 [Example A68] | 600 |  | 280 | 400 | > 3000 |  | 7470 |  |  |  |  |  |  |
| C[C@]12CC3CC(C(=O)N[C@@H]4CCNC[C@H]4F)(C1)C[C@@](c1ccccc1)(C3)C2 [Example B5] | 19 | 20 | 174 | 240 | > 3000 |  | 11900 |  |  |  |  |  |  |
| C[C@]12CC3CC(C(=O)N[C@H]4CCNC[C@@H]4F)(C1)C[C@@](c1ccccc1)(C3)C2 [Example B6] | 36 | 20 | 193 | 320 | > 3000 |  | 12200 |  |  |  |  |  |  |
| C[C@]12CC3CC(C(=O)N4CCC(N)C5(CC5)C4)(C1)C[C@@](c1ccccc1)(C3)C2 (some centres unmarked) [Example B9] | 25 | 60 | 85 | 75 |  |  | 8900 |  |  |  |  |  |  |
| C[C@]12CC3CC(C(=O)N4CCC5(CCCN5)CC4)(C1)C[C@@](c1ccccc1)(C3)C2 [Example B10] | 45 | 50 | 71 | 110 |  |  | 12300 |  |  |  |  |  |  |
| CC1(C)CN(C(=O)C23CC4C[C@@](C)(C2)C[C@](c2ccccc2)(C4)C3)CC[C@@H]1N [Example B13] | 14 |  | 71 | 40 |  |  | 11300 |  | 85 | 51 | 32 | 50 |  |
| C[C@]12CC3CC(CN4CCC(N)CC4)(C1)C[C@@](c1ccccc1)(C3)C2 [Example B69] | 429 |  | 279 | 710 | 930 |  | 4670 |  |  |  |  |  |  |
| C[C@@]12CC3CC(C(=O)N[C@H]4CC[C@H](CN)CC4)(C1)C[C@](c1ccccc1)(C3)C2 [Example C3] | 73 | 30 | 190 | 855 | 3170 |  | 5200 |  |  |  |  |  |  |
| C[C@H]1C[C@@H](NC(=O)C23CC4C[C@](C)(C2)C[C@@](c2ccccc2)(C4)C3)CCN1 [Example C4] | 78 | 30 | 178 | 1020 | > 3000 |  | 14000 |  |  |  |  |  |  |
| C[C@@]12CC3CC(C(=O)N[C@@H]4CCNC[C@H]4F)(C1)C[C@](c1ccccc1)(C3)C2 [Example C5] | 169 |  | 109 | 775 | > 3000 |  | 11600 |  |  |  |  |  |  |
| C[C@@]12CC3CC(C(=O)N[C@H]4CCNC[C@@H]4F)(C1)C[C@](c1ccccc1)(C3)C2 [Example C6] | 320 |  | 250 | 480 | 2980 |  | 12700 |  |  |  |  |  |  |
| C[C@@]12CC3CC(C(=O)N4CCC(N)CC4)(C1)C[C@](c1ccccc1)(C3)C2 [Example C7] | 124 | 170 | 198 | 335 | 8200 |  | 13000 |  |  |  |  |  |  |
| C[C@@]12CC3CC(C(=O)N4CCC5(CCCN5)CC4)(C1)C[C@](c1ccccc1)(C3)C2 [Example C10] | 100 | 180 | 85 | 155 |  |  | 12700 |  |  |  |  |  |  |
| C[C@@]12CC3CC(C(=O)N[C@H]4CN5CCC4CC5)(C1)C[C@](c1ccccc1)(C3)C2 [Example C58] | 785 |  | 188 | 1010 | 100 |  | 10100 |  |  |  |  |  | 16 |
| C[C@@]12CC3CC(CN4CCC(N)CC4)(C1)C[C@](c1ccccc1)(C3)C2 [Example C69] | 313 |  | 208 | 310 | 1140 |  | 3800 |  |  |  |  |  |  |
